For orientation: melting point means the temperature of the solid-liquid transition. As for `Cc1[nH]c(=S)n(Nc2cccc(Cl)c2)c1C(=O)O` [Compound 9.28, 1-(3-Chlorophenylamino)-2,3-dihydro-5-hydroxycarbonyl-4-methyl-1H-imidazole-2-thione], the melting point was 166 to 168 °C.

With `COC(=O)c1c(C)[nH]c(=S)n1Nc1cccc(Cl)c1` [Compound 9.27, 1-(3-Chlorophenylamino)-2,3-dihydro-5-methoxycarbonyl-4-methyl-1H-imidazole-2-thione], the melting point is 194 to 196 °C.

Molecule `Cc1c(-c2ccccc2)[nH]c(=S)n1Nc1cccc(Cl)c1` [Compound 9.10, 1-(3-Chlorophenylamino)-2,3-dihydro-5-methyl-4-phenyl-1H-imidazole-2-thione] had a melting point of 238 °C.

`Cc1cccc(Nn2cnc(C)c2-c2cccc(C#N)c2)c1` [Compound 13.16, 5-(3-Cyanophenyl)-4-methyl-1-(3-methylphenylamino)-1H-imidazole] returned a melting point of 138 to 140 °C.

For the molecule `Cc1[nH]c(=S)n(Nc2cccc(Cl)c2)c1-c1ccc(Cl)cc1` [Compound 9.08, 5-(4-Chlorophenyl)-1-(3-chlorophenylamino)-2,3-dihydro-4-methyl-1H-imidazole-2-thione], the melting point was 225 °C.

On to `Cc1cccc(Nn2c(C)c(C)[nH]c2=S)c1` [Compound 9.22, 2,3-Dihydro-4,5-dimethyl-1-(3-methylphenylamino)-1H-imidazole-2-thione], for which the melting point was determined as 230 °C.

For `Cc1[nH]c(=S)n(Nc2ccccc2)c1C` [Compound 9.21, 2,3-Dihydro-4,5-dimethyl-1-(phenylamino)-1H-imidazole-2-thione], the melting point lay within 217 to 219 °C.

With `Clc1cccc(Nn2cnc3c2CCCC3)c1` [Compound 13.04, 1-(3-Chlorophenylamino)-4,5,6,7-tetrahydro-1H-benzimidazole], the melting point is 180 °C.

Turning to `COc1cccc(Nn2cnc(C)c2-c2ccccc2)c1` [Compound 13.14, 1-(3-Methoxyphenylamino)-4-methyl-5-phenyl-1H-imidazole], the melting point is 156 to 158 °C.

`Cc1[nH]c(=S)n(Nc2ccc(Cl)cc2)c1-c1ccccc1` [Compound 9.04, 1-(4-Chlorophenylamino)-2,3-dihydro-4-methyl-5-phenyl-1H-imidazole-2-thione] showed a melting point of 212 to 214 °C.

Take `COc1ccc(-c2c(C)[nH]c(=S)n2Nc2cccc(Cl)c2)cc1` [Compound 9.09, 2,3-Dihydro-1-(3-chlorophenylamino)-5-(4-methoxyphenyl)-4-methyl-1H-imidazole-2-thione]: the melting point worked out at 226 °C.

The molecule `Cc1ncn(Nc2ccccc2)c1C` [Compound 13.06, 4,5-Dimethyl-1-phenylamino-1H-imidazole] returned a melting point of 178 °C.

With `Cc1[nH]c(=S)n(Nc2cccc(Cl)c2)c1C` [Compound 9.20, 2,3-Dihydro-4,5-dimethyl-1-(3-chlorophenylamino)-1H-imidazole-2-thione], the melting point amounted to 234 °C.

The molecule `Cc1cccc(Nn2cnc(C)c2C)c1` [Compound 13.08, 4,5-Dimethyl-1-(3-methylphenylamino)-1H-imidazole] returned a melting point of 144 °C.

As to `Cc1ncn(Nc2cccc(Cl)c2)c1C` [Compound 13.07, 1-(3-Chlorophenylamino)-4,5-dimethyl-1H-imidazole], the melting point came to 146 °C.

In turn, `Cc1ncn(Nc2ccccc2)c1-c1ccccc1` [Compound 13.05, 4-Methyl-5-phenyl-1-phenylamino-1H-imidazole] displayed a melting point of 165 to 167 °C.

The molecule `Cc1cccc(Nn2c(-c3ccccc3)c(C(C)C)[nH]c2=S)c1` [Compound 9.23, 2,3-Dihydro-4-isopropyl-1-(3-methylphenylamino)-5-phenyl-1H-imidazole-2-thione] gave a melting point of 220 to 222 °C.

Molecule `CSc1nc(C)c(-c2ccccc2)n1Nc1cccc(Cl)c1` gave a melting point of 215 °C.

`CCc1ncn(Nc2cccc(C)c2)c1-c1ccccc1` [Compound 13.11, 4-Ethyl-1-(3-methylphenylamino)-5-phenyl-1H-imidazole]: the melting point lay within 158 to 160 °C.

`COC(=O)c1[nH]c(=S)n(Nc2cccc(Cl)c2)c1C` [Compound 9.29, 1-(3-Chlorophenylamino)-2,3-dihydro-4-methoxycarbonyl-5-methyl-1H-imidazole-2-thione] displayed a melting point of 160 to 162 °C.

Take `Cc1nc(SCc2ccccc2)n(Nc2cccc(Cl)c2)c1-c1ccccc1`: the melting point was 130 °C.

On to `CCc1[nH]c(=S)n(Nc2cccc(Cl)c2)c1-c1ccccc1` [Compound 9.24, 1-(3-Chlorophenylamino)-2,3-dihydro-4-ethyl-5-phenyl-1H-imidazole-2-thione], for which the melting point lay in the range of 116 to 118 °C.

`Cc1ncn(Nc2ccc(F)cc2)c1-c1ccccc1` [Compound 13.10, 1-(4-Fluorophenylamino)-4-methyl-5-phenyl-1H-imidazole] displayed a melting point of 155 °C.

Molecule `COC(=O)c1cccc(-c2c(C)[nH]c(=S)n2Nc2cccc(C)c2)c1` [Compound 9.35, 2,3-Dihydro-4-methyl-1-(3-methylphenylamino)-5-(3-methoxycarbonylphenyl)-1H-imidazole-2-thione] had a melting point of 164 to 166 °C.

In turn, `S=c1[nH]c(-c2ccccc2)c(-c2ccccc2)n1Nc1cccc(Cl)c1` [Compound 9.26, 1-(3-Chlorophenylamino)-2,3-dihydro-4,5-diphenyl-1H-imidazole-2-thione] yielded a melting point of 178 to 180 °C.

As for `Cc1cc(C)cc(Nn2cnc(C)c2-c2ccccc2)c1` [Compound 13.13, 1-(3,5-Dimethylphenylamino)-4-methyl-5-phenyl-1H-imidazole], the melting point fell in the range of 154 to 156 °C.

In the case of `Cc1[nH]c(=S)n(Nc2ccc(F)cc2)c1-c1ccccc1` [Compound 9.03, 2,3-Dihydro-1-(4-fluorophenylamino)-4-methyl-5-phenyl-1H-imidazole-2-thione], the melting point worked out at 228 °C.

(Values after patent US7049332B2, “HIV inhibiting N-aminoimidazole derivatives” (K. U. Leuven Research & Development, priority 2001, dated 2006).)
